{"source": "patent US20190315814A1", "about": "“LANTIBIOTIC VARIANTS AND USES THEREOF” (priority 2016, published 2019)", "key": {"[1]": {"test_system": "Clostridium difficile UNT103-1", "assay": "Non-cannulated Syrian hamster C. difficile infection model, oral gavage", "assay_type": "in vivo, Golden Syrian hamsters", "description": "(§1) Following the recovery phase, male Golden Syrian hamsters were inoculated with Clostridium difficile UNT103-1 (VA11, non epidemic (cdtB-, REA group J) Curtis Donskey, Cleveland VA Hospital, Cleveland, Ohio). On Day 1, at 24 hrs after infection, all animals received a single subcutaneous injection of clindamycin (10 mg/kg). Test article formulations were administered three times per day (TID), starting on Day 2 at 18 hours after Clindamycin injection, for 5 consecutive days (Days 2 through 6), and followed until Day 22 to assess recurrence. Vancomycin (positive control) was administered once a day at 20 mg/kg on Days 2 through 6. Cecal spore counts and Toxins A and B were determined as described above"}, "[2]": {"test_system": "Eggerthella lenta (ATCC 27337)"}, "[3]": {"test_system": "Lactobacillus acidophilus (CCUG 4356)"}, "[4]": {"test_system": "Clostridium scindens (ATCC 35704)"}, "in vitro": {"assay": "in vitro", "settings": "simulated gi fluid", "description": "Assay incubation conditions included […] simulated gastric fluid (SGF, USP 39 Test Solution; 2 g/L NaCl, 7 mL/L glacial HCl, pH 1.4) containing 1.75 mg/mL Pepsin (3200-4500 U/mg) mixed with 7.5 μL of 10 mg/mL variant (or positive control, NH2-Met-Arg-Phe-Ala-OH, MRFA, CAS#67368-29-0) for a final concentration of 300 μg/ml variant in a microfuge tube. Samples were incubated at 37° C. and analyzed using HPLC or LC-MS for loss of substrate. The percent remaining, elimination rate constant (Ke), and in vitro protein half-lives were calculated. A control of SGF without enzyme was also run and analyzed in the same manner for each variant."}, "[5]": {"test_system": "Clostridium difficile UNT103-1", "assay": "Second non-cannulated Syrian hamster C. difficile infection model, oral gavage dose range-finding", "assay_type": "in vivo, Golden Syrian hamsters", "description": "as §1, with “formulated at 3 to 5 different doses” for “formulations”, “above.” for “above”"}, "[6]": {"settings": "simulated gi fluid"}, "[7]": {"test_system": "VRE Enterococcus faecalis", "settings": "VRE"}, "[8]": {"test_system": "Peptostreptococcus anaerobius (ATCC 27337)"}}, "note": "Read-outs that look alike come from different tables or passages of the source."}
{"smiles": "C=C1NC(=O)[C@H](Cc2c[nH]c3ccccc23)NC(=O)[C@H](NC(=O)[C@H](CCCCN)NC(=O)[C@@H](N)[C@@H](C)CC)CSC[C@@H](C(=O)N[C@H]2C(=O)N3CCC[C@H]3C(=O)NCC(=O)N[C@H](C(=O)N[C@@H](C)C(=O)N[C@@H](CC(N)=O)C(=O)NC(=CC)C(=O)NCC(=O)N[C@@H]3CSC[C@@H]4NC(=O)[C@H](Cc5ccccc5)NC(=O)[C@@H](CS/C=C\\NC4=O)NC(=O)[C@H](CC(N)=O)NC(=O)[C@H](Cc4ccccc4)NC3=O)CS[C@H]2C)NC(=O)[C@H](CC(C)C)NC1=O", "note": "[F1I R13N Y20F]", "values": [{"measurement": "Efficacy compared with Vancomycin-treated animals", "setting": "[1]; end of the study at Day 22, oral gavage, in words", "value": "equal or superior efficacy"}, {"measurement": "Percent Survival at Day-22", "setting": "[1]; oral gavage TID Days 2-6, vancomycin 20 mg/kg once a day", "value": 83, "unit": "%"}, {"measurement": "Toxin A level at Day-22", "setting": "[1]; oral gavage, first value of A/B cell, limit of detection 0.8", "value": 5.1, "unit": "ng/mL"}, {"measurement": "Mean LOG10 CFU/mL of feces homogenates (cecal spore counts) at Day-22", "setting": "[1]; oral gavage, limit of detection 2.40", "value": 2.65, "unit": "LOG10 CFU/mL"}, {"measurement": "Toxin B level at Day-22", "setting": "[1]; oral gavage, second value of A/B cell, limit of detection 0.8", "value": 6, "unit": "ng/mL"}, {"measurement": "MIC E. lenta", "setting": "[2]", "value": 0.125, "unit": "µg/mL"}, {"measurement": "MIC L. acidophilus", "setting": "[3]", "value": 0.5, "unit": "µg/mL"}, {"measurement": "MIC C. scindens", "setting": "[4]", "value": 2, "unit": "µg/mL"}, {"measurement": "half-life", "setting": "in vitro", "value": "> 1440", "unit": "min"}, {"measurement": "Mean LOG10 CFU/mL of feces homogenates (cecal spore counts) at Day-22", "setting": "[5]; 6 mg/Kg oral gavage TID", "value": 5.47, "unit": "LOG10 CFU/mL"}, {"measurement": "Toxin A level at Day-22", "setting": "[5]; 6 mg/Kg oral gavage TID", "value": 215.5, "unit": "ng/mL"}, {"measurement": "Toxin B level at Day-22", "setting": "[5]; 6 mg/Kg oral gavage TID", "value": 242.2, "unit": "ng/mL"}, {"measurement": "Percent Survival at Day-22", "setting": "[5]; 6 mg/Kg oral gavage TID Days 2-6", "value": 0, "unit": "%"}, {"measurement": "Mean LOG10 CFU/mL of feces homogenates (cecal spore counts) at Day-22", "setting": "[5]; 20 mg/Kg oral gavage TID", "value": 5.37, "unit": "LOG10 CFU/mL"}, {"measurement": "Toxin A level at Day-22", "setting": "[5]; 20 mg/Kg oral gavage TID", "value": 165.5, "unit": "ng/mL"}, {"measurement": "Toxin B level at Day-22", "setting": "[5]; 20 mg/Kg oral gavage TID", "value": 272.3, "unit": "ng/mL"}, {"measurement": "Percent Survival at Day-22", "setting": "[5]; 20 mg/Kg oral gavage TID Days 2-6", "value": 33, "unit": "%"}, {"measurement": "Mean LOG10 CFU/mL of feces homogenates (cecal spore counts) at Day-22", "setting": "[5]; 60 mg/Kg oral gavage TID", "value": 3.18, "unit": "LOG10 CFU/mL"}, {"measurement": "Toxin A level at Day-22", "setting": "[5]; 60 mg/Kg oral gavage TID", "value": 47.6, "unit": "ng/mL"}, {"measurement": "Toxin B level at Day-22", "setting": "[5]; 60 mg/Kg oral gavage TID", "value": 108.7, "unit": "ng/mL"}, {"measurement": "Percent Survival at Day-22", "setting": "[5]; 60 mg/Kg oral gavage TID Days 2-6", "value": 83, "unit": "%"}, {"measurement": "half-life", "setting": "[6]; FaSSIF + 1% pancreatin + 3 μg/ml trypsin + 3 μg/ml chymotrypsin half-life", "value": "> 720", "unit": "min"}, {"measurement": "half-life", "setting": "[6]; FaSSIF only half-life", "value": "> 720", "unit": "min"}, {"measurement": "MIC VRE ATCC 700221", "setting": "VRE Enterococcus faecium", "value": 8, "unit": "µg/mL"}, {"measurement": "MIC to H. Pylori without EDTA", "setting": "Heliobacter pylori", "value": 8, "unit": "µg/mL"}, {"measurement": "MIC to H. Pylori with 0.05M EDTA", "setting": "Heliobacter pylori; with 0.05M EDTA", "value": 4, "unit": "µg/mL"}, {"measurement": "MIC VRE ATCC 51575", "setting": "[7]", "value": 8, "unit": "µg/mL"}, {"measurement": "MIC VRE CCUG 47775", "setting": "[7]", "value": 16, "unit": "µg/mL"}, {"measurement": "MIC P. anaerobius", "setting": "[8]", "value": 0.125, "unit": "µg/mL"}]}
